Values joined by “and” are separate entries in the source; they are usually repeats but may differ in a detail not shown here. Equal entries are not always repeated. Toxic doses and inconclusive results are not listed.

In this experiment the test system is P388 leukemia ip, CD2F1 mice, survival T/C. As to the kind of experiment: NCI In Vivo Anticancer Drug Screen. Data for tumor model P388 Leukemia (intraperitoneal) in CD2F1 (CDF1) mice. The settings on record: endpoint: median survival time, higher = longer survival. The method, boiled down:
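Mice carrying the transplanted tumor received test compound or vehicle. Survival was recorded in each group, and the value is the treated-group measurement divided by that of the vehicle-treated control group.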

Where [1] appears, read: dose: 6.25 mg/kg/injection, schedule: Q01DX009 (ip), vehicle: saline with Tween-80.
The mark [2] stands for this setting: dose: 12.5 mg/kg/injection, schedule: Q01DX009 (ip), vehicle: saline with Tween-80.
[3] abbreviates: dose: 25.0 mg/kg/injection, schedule: Q01DX009 (ip), vehicle: saline with Tween-80.
The mark [4] stands for this setting: dose: 60.0 mg/kg/injection, schedule: Q01DX005 (ip), vehicle: saline with Tween-80.
Setting [5] is: dose: 120.0 mg/kg/injection, schedule: Q01DX005 (ip), vehicle: saline with Tween-80.
Where [6] appears, read: dose: 50.0 mg/kg/injection, schedule: Q01DX005 (ip), vehicle: saline with Tween-80.
Where [7] appears, read: dose: 100.0 mg/kg/injection, schedule: Q01DX005 (ip), vehicle: saline with Tween-80.
Where [8] appears, read: dose: 200.0 mg/kg/injection, schedule: Q01DX005 (ip), vehicle: saline with Tween-80.
The mark [9] stands for this setting: dose: 240.0 mg/kg/injection, schedule: Q01DX005 (ip), vehicle: saline with Tween-80.
[10] abbreviates: dose: 60.0 mg/kg/injection, schedule: Q01DX005 (ip), vehicle: saline.
The mark [11] stands for this setting: dose: 120.0 mg/kg/injection, schedule: Q01DX005 (ip), vehicle: saline.
[12] abbreviates: dose: 240.0 mg/kg/injection, schedule: Q01DX005 (ip), vehicle: saline.
The mark [13] stands for this setting: dose: 25.0 mg/kg/injection, schedule: Q01DX009 (ip), vehicle: saline.
Where [14] appears, read: dose: 50.0 mg/kg/injection, schedule: Q01DX009 (ip), vehicle: saline.
Where [15] appears, read: dose: 100.0 mg/kg/injection, schedule: Q01DX009 (ip), vehicle: saline.
The mark [16] stands for this setting: dose: 3.12 mg/kg/injection, schedule: Q01DX009 (ip), vehicle: saline.
[17] abbreviates: dose: 6.25 mg/kg/injection, schedule: Q01DX009 (ip), vehicle: saline.
Setting [18] is: dose: 12.5 mg/kg/injection, schedule: Q01DX009 (ip), vehicle: saline.

`OC(c1cc2cc(Br)ccc2c2cc(Br)ccc12)C1CCCCN1` (centres undefined): the T/C was 107 % of control under setting [1], 109 % of control under setting [2] and 101 % of control under setting [3].
On to `Nc1ccc2ccc3ccc(N)nc3c2n1`, for which the T/C under setting [4] is 103 % of control and the T/C under setting [5] is 91 % of control.
As to `COc1cccc(/C=C2/SC(=S)N(Cc3ccco3)C2=O)c1OC`, the T/C is, setting by setting: (dose: 12.5 mg/kg/injection, schedule: Q01DX005 (ip), vehicle: saline with Tween-80) 100 % of control; (dose: 25.0 mg/kg/injection, schedule: Q01DX005 (ip), vehicle: saline with Tween-80) 90 % of control; under setting [6], 90 % of control and 91 % of control.
For `C=CC1CC(NC(=O)c2ccccc2)C(=O)O1` (centres undefined), the T/C was 101 % of control under setting [6], 104 % of control under setting [7] and 99 % of control under setting [8].
With `Oc1cc2c(cc1C(c1ccc3c(c1)OCO3)n1ccnc1)OCO2` (centres undefined), the T/C was 108 % of control under setting [4], 98 % of control under setting [5] and 94 % of control under setting [9].
Regarding `Cn1c(=O)c2[nH]c(C3COCCO3)nc2n(C)c1=O` (centres undefined), the T/C reads like this: under setting [4], 91 % of control; under setting [9], 87 % of control.
Turning to `COc1c(OC(C)=O)c(OC(C)=O)cc2c1-c1ccc(SC)c(=O)cc1C(NC(C)=O)CC2` (centres undefined), the T/C is, setting by setting: (dose: 1.25 mg/kg/injection, schedule: Q01DX009 (ip), vehicle: Klucel (hydroxypropylcellulose) (HPC)) 118 % of control; (dose: 5.0 mg/kg/injection, schedule: Q01DX009 (ip), vehicle: Klucel (hydroxypropylcellulose) (HPC)) 150 % of control; (dose: 10.0 mg/kg/injection, schedule: Q01DX009 (ip), vehicle: Klucel (hydroxypropylcellulose) (HPC)) 169 % of control and 185 % of control; (dose: 20.0 mg/kg/injection, schedule: Q01DX009 (ip), vehicle: Klucel (hydroxypropylcellulose) (HPC)) 178 % of control.
On to `O=[N+]([O-])c1cccc2c1ccc1nonc12`, for which the T/C under setting [6] is 99 % of control, the T/C under setting [7] was 94 % of control and the T/C under setting [8] is 97 % of control.
For `c1csc(SSc2nccs2)n1`, the T/C is 104 % of control (dose: 25.0 mg/kg/injection, schedule: Q04DX002 (ip), vehicle: saline with Tween-80); 103 % of control (dose: 50.0 mg/kg/injection, schedule: Q04DX002 (ip), vehicle: saline with Tween-80); 103 % of control and 105 % of control (dose: 100.0 mg/kg/injection, schedule: Q04DX002 (ip), vehicle: saline with Tween-80).
Take `CN(C)S(=O)(=O)Nc1cccc(Br)c1`: the T/C reads like this: (dose: 50.0 mg/kg/injection, schedule: Q01DX009 (ip), vehicle: saline with Tween-80) 103 % of control; (dose: 100.0 mg/kg/injection, schedule: Q01DX009 (ip), vehicle: saline with Tween-80) 102 % of control; (dose: 200.0 mg/kg/injection, schedule: Q01DX009 (ip), vehicle: saline with Tween-80) 106 % of control.
Regarding `CS(=O)(=O)OCCC[Se]Cc1ccccc1C[Se]CCCOS(C)(=O)=O`, the T/C by setting is: under setting [4], 93 % of control; under setting [5], 91 % of control.
For the compound `CN1C(=O)CN2CCc3ccccc3C2c2cc(Cl)ccc21` (centres undefined), the T/C reads like this: under setting [6], 92 % of control; under setting [7], 98 % of control; under setting [8], 98 % of control.
In the case of `OC1(C2=COCCO2)CCCCC1`, the T/C is 105 % of control under setting [10], 110 % of control under setting [11] and 105 % of control under setting [12].
Regarding `O=S1(=O)OCc2ccccc21`, the T/C is, setting by setting: (dose: 12.5 mg/kg/injection, schedule: Q01DX009 (ip), vehicle: Klucel (hydroxypropylcellulose) (HPC)) 98 % of control; (dose: 25.0 mg/kg/injection, schedule: Q01DX009 (ip), vehicle: Klucel (hydroxypropylcellulose) (HPC)) 100 % of control; (dose: 50.0 mg/kg/injection, schedule: Q01DX009 (ip), vehicle: Klucel (hydroxypropylcellulose) (HPC)) 107 % of control; (dose: 100.0 mg/kg/injection, schedule: Q01DX009 (ip), vehicle: Klucel (hydroxypropylcellulose) (HPC)) 117 % of control.
On to `Oc1ccc(C2(c3ccc(O)c(Cl)c3)CC3CCC2C3)cc1Cl` (centres undefined), for which the T/C is, setting by setting: (dose: 0.79 mg/kg/injection, schedule: Q01DX009 (ip), vehicle: saline with Tween-80) 103 % of control and 111 % of control; (dose: 1.56 mg/kg/injection, schedule: Q01DX009 (ip), vehicle: saline with Tween-80) 103 % of control and 116 % of control; (dose: 3.12 mg/kg/injection, schedule: Q01DX009 (ip), vehicle: saline with Tween-80) 103 % of control and 105 % of control; under setting [1], 111 % of control and 94 % of control; under setting [2], 97 % of control; under setting [3], 98 % of control.
`CC(C)N(CCO)CC(O)Cn1cnc2c(N)ncnc21` (centres undefined) (tested in a mixture with another compound): the T/C is 97 % of control under setting [10], 94 % of control under setting [11] and 93 % of control under setting [12].
For the compound `Cc1ccc(S(=O)(=O)CCC(=O)c2ccc([N+](=O)[O-])cc2)cc1`, the T/C was 96 % of control (dose: 50.0 mg/kg/injection, schedule: Q01DX005 (ip), vehicle: Klucel (hydroxypropylcellulose) (HPC)); 96 % of control (dose: 100.0 mg/kg/injection, schedule: Q01DX005 (ip), vehicle: Klucel (hydroxypropylcellulose) (HPC)); 96 % of control (dose: 200.0 mg/kg/injection, schedule: Q01DX005 (ip), vehicle: Klucel (hydroxypropylcellulose) (HPC)).
As to `CC(=O)Cc1ncn(-c2cc(C)on2)n1`, the T/C by setting is: (dose: 60.0 mg/kg/injection, schedule: Q01DX005 (ip), vehicle: Klucel (hydroxypropylcellulose) (HPC)) 111 % of control; (dose: 120.0 mg/kg/injection, schedule: Q01DX005 (ip), vehicle: Klucel (hydroxypropylcellulose) (HPC)) 113 % of control; (dose: 240.0 mg/kg/injection, schedule: Q01DX005 (ip), vehicle: Klucel (hydroxypropylcellulose) (HPC)) 100 % of control.
`NNC(=O)c1ccc2ccccc2c1O`: the T/C is, setting by setting: under setting [13], 103 % of control; under setting [14], 99 % of control; under setting [15], 101 % of control; (dose: 200.0 mg/kg/injection, schedule: Q01DX009 (ip), vehicle: saline) 96 % of control.
As for `COC(=O)C1=C(C(=O)OC)[C]([Hg][CH3])(C(C)=O)N=N1` (centres undefined), the T/C is 88 % of control (dose: 1.56 mg/kg/injection, schedule: Q01DX009 (ip), vehicle: saline); 88 % of control under setting [16]; 93 % of control under setting [17]; 106 % of control under setting [18].
Consider `CC(C)CNC(=O)c1ccc(OCC(O)CNC(C)(C)C)c(Cl)c1` (centres undefined), for which the T/C is, setting by setting: (dose: 100.0 mg/kg/injection, schedule: Q04DX003 (ip), vehicle: Klucel (hydroxypropylcellulose) (HPC)) 107 % of control; (dose: 200.0 mg/kg/injection, schedule: Q04DX003 (ip), vehicle: Klucel (hydroxypropylcellulose) (HPC)) 102 % of control.
Take `Oc1ccccc1O`: the T/C was 112 % of control under setting [16]; 104 % of control under setting [17]; 105 % of control under setting [18]; 105 % of control under setting [13]; 105 % of control and 106 % of control and 107 % of control under setting [14].
In the case of `COC(=O)C1(C)CCCC2(C)c3cc(O)c(C(C)C)cc3CCC12` (centres undefined), the T/C was 94 % of control (dose: 100.0 mg/kg/injection, schedule: Q01DX001 (ip), vehicle: Klucel (hydroxypropylcellulose) (HPC)); 94 % of control (dose: 200.0 mg/kg/injection, schedule: Q01DX001 (ip), vehicle: Klucel (hydroxypropylcellulose) (HPC)); 100 % of control (dose: 400.0 mg/kg/injection, schedule: Q01DX001 (ip), vehicle: Klucel (hydroxypropylcellulose) (HPC)).
Consider `N#CC(C(=O)C(=O)Nc1cccc(C(F)(F)F)c1)c1ccccc1` (centres undefined), for which the T/C under setting [6] was 93 % of control and the T/C under setting [7] was 100 % of control.
Take `c1ccc([P+](c2ccccc2)(c2ccccc2)c2ccccc2)cc1`: the T/C is 100 % of control (dose: 0.63 mg/kg/injection, schedule: Q04DX003 (ip), vehicle: saline); 118 % of control (dose: 1.25 mg/kg/injection, schedule: Q04DX003 (ip), vehicle: saline); 122 % of control (dose: 2.5 mg/kg/injection, schedule: Q04DX003 (ip), vehicle: saline); 122 % of control (dose: 3.3 mg/kg/injection, schedule: Q04DX003 (ip), vehicle: saline).
Consider `[C-]#[N+]C([N+]#[C-])=C(C)OCC`, for which the T/C is 98 % of control under setting [1], 89 % of control under setting [2], 105 % of control under setting [3] and 101 % of control under setting [15].

(Values after PubChem BioAssay AID330 (DTP/NCI, 2004).)
